Consider three compounds from US9833520B2, “Labeled, non-peptidic, multivalent integrin antagonist compounds; methods for synthesis and uses thereof” (The Methodist Hospital Research Institute, priority 2011, dated 2017).

The subject of one series is B16F10 cells. Description: In vitro cytotoxicity (MTT) assay, B16F10. To be noted: B16F10, 100 μg/mL, 24 hr. Type of series: cell-based, mouse. As to the method:
For cell cytotoxicity assay, the cells were then seeded into 96-well flat-bottomed tissue-culture plates at 1×10^4 cells/well and incubated for 24 hr in humidified atmosphere of 5% (vol./vol.) CO2 at 37° C. in the presence of each compound. The multivalent compound (monomer, dimer, and trimer) sample solutions were diluted with culture medium (1% FBS added) to obtain concentrations in the range of 0.1-100 μg/mL for each compound. The cytotoxic effects of monomer, dimer and trimer compounds were evaluated by adding 100 μL of each sample in 100 μL culture medium to each well. After 24-hrs' incubation, cell viability was evaluated by mitochondrial conversion of 3-(4,5-dimethylthiazol-2-yl)-2,5-diphenyl tetrazolium bromide (MTT assay) (Allison et al., 1985).
Mouse melanoma B16F10 cells (Caliper.CO,) and human melanoma M21 cells were maintained in RPMI 1640 (Caliper) containing 10% (vol./vol.) fetal bovine serum (Invitrogen, Ontario, Canada), 100 U/mL penicillin G, and 100 μg/mL streptomycin for general cell growing condition. For cell cytotoxicity assay, the cells were then seeded into 96-well flat-bottomed tissue-culture plates at 1×10^4 cells/well and incubated for 24 hr or 72 hr in humidified atmosphere of 5% (vol./vol.) CO2 at 37° C. in the presence of each compound. The multivalent compounds (monomer, dimer, trimer) sample solutions were diluted with culture medium (1% FBS added) to obtain the concentration of each compound in the range of 0.1 to 100 μg/mL. The cytotoxic effects of monomer, dimer and trimer compounds solution were evaluated by adding a mixture of 100 μL of each sample and 100 μL of culture medium to each well. After 24-hr or 72-hr incubation, cell viability was evaluated by mitochondrial conversion of 3-(4,5-dimethylthiazol-2-yl)-2,5-diphenyl tetrazolium bromide (MTT assay).

In another series the target is T1, purified human αvβ3 (Homo sapiens, UniProt P05106+P06756).
T1 construct: purchased Chemicon International, Temecula, Calif., USA
Description: ELISA: competitive inhibition of biotinylated vitronectin binding to immobilized purified integrin αvβ3. To be noted: for in vitro measured IC50 increase from IA-monomer: compared to IA-monomer. On the procedure: In vitro Binding Assay. […] Purified integrin αvβ3 protein (Chemicon International, Temecula, Calif., USA) was applied to 96-well polystyrene microtiter plates at 0.1 μg/well. After overnight incubation at 4° C., the plates were washed, and then blocked with milk solution (KPL, Inc. Gaithersburg, Md., USA) at room temperature for 2 hr. The blocking buffer was removed, and the plates were inoculated in quadruplicate with bivalent IAs with a typical starting concentration of 125 nM. Serial dilutions were prepared in the 96-well plates using multichannel pipettes. Biotinylated vitronectin solution (0.1 μg/well) was added to each well as a standard competitor. The plates were incubated at room temperature for 3 h, washed, and the bound vitronectin was detected using NeutrAvidin-HRP conjugate at 0.01 μg/well (Pierce, Rockford, Ill., USA) and LumiGlo® chemiluminescent substrate system (KPL, Inc.). The luminescence was read using a FLUOstar™ OPTIMA Microplate Reader (Durham, N.C., USA). […] (Peptides International, Inc., Louisville, Ky., USA) was also tested using the same method as described above.
Briefly, purified integrin αvβ3 protein (Chemicon International, Temecula, Calif., USA) was applied to 96-well polystyrene microtiter plates for overnight incubation at 4° C. The plates were washed and then blocked with milk solution (KPL, Inc., Gaithersburg, Md., USA) and the plates were inoculated in quadruplicate with multivalent IAs at different concentrations. Biotinylated vitronectin solution was added to each well as a standard competitor. The plates were incubated at room temperature, washed, and the bound vitronectin detected using NeutrAvidin-HRP® conjugate (Pierce, Rockford, Ill., USA) and LumiGlo® chemiluminescent substrate system (KPL, Inc., Gaithersburg, Md., USA). The luminescence was read using a FLUOstar® OPTIMA Microplate Reader (Durham, N.C., USA).
In vitro Binding Affinity Assay. Purified integrin αvβ3 protein (Chemicon International, Temecula, Calif., USA) was applied to 96-well polystyrene microtiter plates at 1 μg/well. After overnight incubation at 4° C., the plates were washed and then blocked with milk solution (KPL, Inc., Gaithersburg, Md., USA) at room temperature for 2 hr. The blocking buffer was removed, and the plates were inoculated in quadruplicate with bivalent IAs with a typical starting concentration of 125 nM. Serial dilutions were prepared in the 96-well plates using multichannel pipettes. Biotinylated vitronectin solution (0.1 μg/well) was added to each well as a standard competitor.
The plates were incubated at room temperature for 3 hr, washed, and the bound vitronectin was detected using NeutrAvidin-HRP conjugate at 0.01 μg/well (Pierce, Rockford, Ill., USA) and LumiGlo® chemiluminescent substrate system (KPL, Inc.). The luminescence was read using a FLUOstar OPTIMA Microplate Reader (Durham, N.C., USA). […] It measured competitive binding of the integrin antagonist and biotinylated human vitronectin for the immobilized receptor αvβ3.

Where [1] appears, read: monomer/dimer/trimer study, FIG. 28, Table 5, read-out: IC50 (nM) ELISA.
[2] abbreviates: Example 1 bivalent IA study, FIG. 4, read-out: IC50 of vitronectin binding to αvβ3 (ELISA).

“Also recorded” adds a separate entry of the source. Where two headings read alike, the source gives them in different places.

As to `O=C(NCCS(=O)(=O)N[C@@H](CNC(=O)c1ccc(OCCNC2=NCCCN2)cc1)C(=O)O)OCCN(CCOC(=O)NCCS(=O)(=O)N[C@@H](CNC(=O)c1ccc(OCCNC2=NCCCN2)cc1)C(=O)O)CCOC(=O)NCCS(=O)(=O)N[C@@H](CNC(=O)c1ccc(OCCNC2=NCCCN2)cc1)C(=O)O` [IA trimer], the cell viability with B16F10 cells is around 80%. Moreover, the “increase in IC50 from the dimer to trimer” value on purified human αvβ3 (compared to IA dimer) was 2 fold. Also, the “in vitro measured IC50 increase from IA-monomer” value on purified human αvβ3 was 56 fold. The IC50 at purified human αvβ3 (setting [1]) stood at 0.22 nM.

As to `NCCS(=O)(=O)N[C@@H](CNC(=O)c1ccc(OCCNC2=NCCCN2)cc1)C(=O)O` [IA, 4-[2-(3,4,5,6-tetrahydropyrimidine-2-ylamino)ethyloxy]benzoyl-2-(S)-aminoethylsulfonyl-amino-β-alanine], the cell viability entry in the series with B16F10 cells (listed as IA-monomer) is “smaller and less significant; also recorded: no significant changes of cell viability”. The IC50 worked out at 22.3 ± 4.51 nM on purified human αvβ3 (setting [2]); 22.3 nM at purified human αvβ3 (Example 2, PEG-linked ligands, averages of at least three determinations, read-out: In vitro EL1SA IC50); 11 nM at purified human αvβ3 (setting [1]).

For the compound `NC(CCCCCC(=O)NCCS(=O)(=O)N[C@@H](CNC(=O)c1ccc(OCCNC2=NCCCN2)cc1)C(=O)O)C(=O)NCCS(=O)(=O)N[C@@H](CNC(=O)c1ccc(OCCNC2=NCCCN2)cc1)C(=O)O` (some centres unmarked) [bivalent IA], the cell viability entry in the series on B16F10 cells (listed as IA-dimer) was “smaller and less significant; also recorded: no significant changes of cell viability”. Also, the “integrin αvβ3 binding affinity compared to monomer” value at purified human αvβ3 was “significantly higher integrin avb3-binding affinity and specificity than IA monomer”. Further, the IC50 on purified human αvβ3 (setting [2]) turned out to be 0.4 ± 0.11 nM; on purified human αvβ3 (setting [1]), 0.44 nM. Moreover, the “in vitro measured IC50 increase from IA-monomer” value at purified human αvβ3 was 28 fold. Besides, on purified human αvβ3 (compared to c-[RGDfV]), the “improvement in receptor affinity (IC50) over c-[RGDfV]” value turned out to be 10 fold.
